Measurements published in US6130250A, “Veterinary use of a pleuromutilin derivative” (priority 1996, dated 2000).
Where a name gives a salt, the structure may show the parent alone.

Key:
[1] = test system: S. hyodysenteriae; test: MIC determination by agar dilution, 10 strains from porcine faeces; type: cell-based, Serpulina hyodysenteriae; settings: for MIC: Brachyspira hyodysenteriae
Method: Minimum inhibitory concentrations (MICs) are determined against 10 strains of S. hyodysenteriae isolated from porcine faeces, by the agar dilution method. NCTC (National Collection of Type Cultures) strains or reference strains are used as controls in all MIC tests. The agar medium for S. hyodysenteriae consists of BAB2 (Unipath CM271) containing 7% whole defibrinated sterile sheep blood. All antimicrobial agents are tested in doubling dilutions. Prepared antibiotic dilutions are added to an appropriate volume of MH agar, previously cooled to 50° C., mixed and 20 ml volumes poured. All S. hyodysenteriae incubations are performed in an anaerobic work station at 37° C. (+/-0.5° C.) (Don Whitley Scientific) which provides a strict anaerobic atmosphere comprising 80% nitrogen, 10% hydrogen and 10% carbon dioxide. All other incubations are performed at 37° C. All strains are incubated in an […] atmosphere at 37° C. for 24 hours. The numbers of the organisms are adjusted to an optical density (OD) equivalent to 1×10^8 colony forming units (cfu) per ml, using MH broth as a blank. The antibiotic containing plates are inoculated in duplicate using a multipoint inoculator (Denley Instruments) which delivers a plate inoculum of approximately 1 μl giving an inoculum of 10^4 -10^5 cfu per spot for all strains (Amon, J. Antimicrob. Chemother. 21 [1988] 701-710; Ericsson et al., Acta Pathol. Microbiol. et Immunol. Scand. 217 [1971] (B) Suppl., 1-90). Control plates are incubated under the same conditions as the test plates. The MICs are read after 24 and 48 hours, the latter being the definitive reading. The MIC is defined as the lowest concentration of antibiotic on which there is no growth, disregarding a single colony or a faint haze caused by the inoculum (National Committee for Clinical Laboratory Standards [1989], Antimicrobial Susceptibility Testing, NCCLC Publications SC3, Villanova, Pa., USA).

[2] = test system: S. hyodysenteriae; test: Further challenge trial: treatment of swine dysentery; type: in vivo, pigs
Source text: A group of 60 (3.5 to 4 weeks old) conventionally reared pigs are fed unmedicated food for 14 days then challenged by the oral route with the standard strain of S. hyodysenteriae (P18A). When clinical signs of disease are evident, pigs are allocated to six treatment groups of 8 pigs per group and fed antibiotic containing feed for 10 days, then unmedicated food for a further 14 days. Valnemulin hydrochloride is fed at 50, 75, 100 and 150 ppm and compared with tiamulin hydrogen fumarate fed at 100 ppm and with unmedicated controls. Pigs with a range of clinical signs of disease are included in each treatment group. After allocation to the treatment groups the evidence of clinical disease is assessed daily and a clinical score assigned, rectal swabs are taken twice weekly for isolation of S. hyodysenteriae and all pigs are weighed at regular intervals. Food intake is also recorded. A post-mortem examination is carried out 24 days after challenge and the large intestine of each pig examined for the presence of lesions. Mucosal scrapings are also taken from 4 areas in the large intestine and cultured for S. hyodysenteriae.

[3] = test system: Mycoplasma gallisepticum; test: Challenge study, treatment of Mycoplasma gallisepticum infection; type: in vivo, male broiler chicks; settings: for mortality: valnemulin all three concentrations, tiamulin 0.05%
Source text: Groups of male broiler chicks are infected with a virulent strain of Mycoplasma gallisepticum (MG) and each group medicated respectively with valnemulin at a concentration of 0.0125%, 0.025%, 0.05%, tiamulin at the same concentration, tylosin 0.05% and a […], spectinomycin combination (Linco-Spectin) 0.083%. There is also one infected group left untreated and an uninfected group. The chicks are infected at two days of age by the injection of 3.4×10^5 organisms into each lung. Medication in the drinking water is commenced 24 hours later for three successive days except for Linco-Spectin with which treatment was continued for 5 days.

[4] = test system: S. hyodysenteriae; test: Challenge trial: prevention of swine dysentery; type: in vivo, pigs; settings: for pigs with S. hyodysenteriae isolated: rectal swabs
Method: Two trials were effected where valnemulin fed at various inclusion levels is compared to tiamulin for the prevention of swine dysentery. The severity of disease is assessed by the evidence of clinical disease as determined by clinical scores for body condition, faeces consistency and composition. The excretion of Serpulina hyodysenteriae in faeces, lesions at post-mortem examination, growth rate and feed conversion ratio are also determined.
In the first trial valnemulin hydrochloride fed at 20, 30 and 40 ppm is compared with tiamulin hydrogen fumarate fed at 30 ppm and with unmedicated controls. Five groups of 9 (5 to 6 week old) conventionally reared pigs are used for each treatment group. The pigs are fed unmedicated food for 14 days, then challenged with the standard strain of S. hyodysenteriae (P18A). Challenge is by the oral route on two consecutive days. The medicated feed is introduced on the day after the second challenge. In the second trial a similar procedure is followed except that 4 groups of approximately 9 pigs were used. These are fed valnemulin hydrochloride at 5, 10 and 20 ppm and compared to unmedicated controls. In this trial the pigs used are from an outdoor reared herd and are challenged with a strain of S. hyodysenteriae isolated from an outdoor herd and previously shown to be capable of causing swine dysentery. In both trials the evidence of clinical disease is assessed daily and a clinical score assigned, rectal swabs are taken twice weekly for isolation of S. hyodysenteriae and all pigs are weighed at regular intervals. Food intake is also recorded. A post-mortem examination is carried out 21 days after challenge and the large intestine examined for the presence of lesions. Mucosal scrapings are also taken from 4 areas in the large intestine and cultured for S. hyodysenteriae.

[5] = tiamulin 100 ppm, treatment period
[6] = first trial, valnemulin 20 and 40 ppm

SMILES: C=C[C@]1(C)C[C@@H](OC(=O)CSCCN(CC)CC)[C@]2(C)[C@H](C)CC[C@]3(CCC(=O)[C@H]32)[C@@H](C)[C@@H]1O [tiamulin hydrogen fumarate]
- MIC [1]: 0.3 µg/mL
- day by which improvement was seen in surviving pigs ([2]; tiamulin 100 ppm): ≤ 8 days
- mean clinical score ([2]; tiamulin 100 ppm): 30
- mortality in words ([2]; tiamulin 100 ppm): reduced mortality compared to unmedicated controls but did not prevent some deaths
- pigs with swine dysentery in post treatment period ([2]; tiamulin 100 ppm, last day of trial): one pig
- animals that died or required euthanasia [2, 5]: 3 animals
- daily live weight gain (DLWG) [2, 5]: 0.1
- feed conversion ratio (FCR) [2, 5]: 6.4
- lesions ([3]; tiamulin and tylosin): only a few
- mortality [3]: no more than 5%
- pigs with S. hyodysenteriae isolated ([4]; first trial, tiamulin 30 ppm): 2
- isolation of S. hyodysenteriae from mucosal scrapings ([4]; first trial, tiamulin 30 ppm): isolated from mucosal scrapings taken from all of these affected animals
- post-mortem lesions in pigs with clinical signs ([4]; first trial, tiamulin 30 ppm): typical lesions of swine dysentery
- post-mortem lesions in pigs without previous clinical signs ([4]; first trial, tiamulin 30 ppm): one pig
- animals with clinical disease ([4]; first trial, tiamulin 30 ppm in feed): 2 out of 9
- mean clinical score per pig ([4]; first trial, tiamulin 30 ppm, control 36): 6
- prevention of swine dysentery in words ([4]; tiamulin 30 ppm in feed): did not prevent swine dysentery but reduced the incidence of disease

SMILES: C=C[C@]1(C)C[C@@H](OC(=O)CSC(C)(C)CNC(=O)[C@H](N)C(C)C)[C@]2(C)[C@H](C)CC[C@]3(CCC(=O)[C@H]32)[C@@H](C)[C@@H]1O [valnemulin hydrochloride, 14-O-[1-[(R)-2-amino-3-methylbutyrylamino]-2-methylpropan-2-ylthioacetyl]mutilin]
- MIC [1]: 0.1 µg/mL
- susceptibility of S. hyodysenteriae strains ([1]; all strains): susceptible
- most active of the agents tested by ([1]; vs tiamulin, lincomycin, tylosin, dimetridazole): 3-600 fold
- shedding of S. hyodysenteriae in faeces ([2]; all levels of valnemulin, after withdrawal of medicated feed): prevented by all levels of valnemulin
- p of clinical scores, valnemulin vs tiamulin ([2]; days 3 to 10, all valnemulin groups): < 0.001
- survival ([2]; valnemulin 50, 75, 100, 150 ppm): All pigs treated with valnemulin survived
- recovery from clinical swine dysentery compared to tiamulin ([2]; valnemulin 50, 75, 100 and 150 ppm): reduction in the number of days that were needed to recover
- pigs with clinical signs in post treatment period ([2]; valnemulin 50 ppm): one pig
- pigs with clinical swine dysentery at post-mortem ([2]; valnemulin 50 ppm): 1 pig
- pigs with reddening of the large intestine ([2]; valnemulin 50 ppm): one other pig
- time to clinical signs after withdrawal of medicated feed ([2]; valnemulin 50 ppm): 4 days
- post-mortem lesions of swine dysentery ([2]; valnemulin 75, 100 or 150 ppm): not seen
- pigs with S. hyodysenteriae in mucosal scrapings ([2]; valnemulin 75 ppm): One pig
- efficacy in words ([2]; valnemulin 100 ppm): highly effective
- day by which clinical disease was not seen ([2]; valnemulin, all levels): ≤ 5 days
- overall efficacy vs comparators ([3]; valnemulin 0.025% and 0.05% in drinking water): at least as good as or better than tiamulin at 0.05% or tylosin at 0.05% and very much better than Linco-Spectin
- recovery of Mycoplasma at 23 days ([3]; valnemulin 3 groups, tylosin 0.05%): not recovered
- mortality [3]: no more than 5%
- weight gains ([3]; valnemulin at all concentrations): higher than for the tiamulin treated groups and equal to the tylosin group
- lesions ([3]; valnemulin highest and lowest doses): Lesions were not seen
- pigs with S. hyodysenteriae isolated ([4]; first trial, valnemulin 30 ppm): 2 pigs
- isolation of S. hyodysenteriae [4, 6]: not isolated
- post-mortem lesions [4, 6]: Lesions were not seen
- evidence of disease ([4]; first trial, valnemulin 20 and 40 ppm in feed): Evidence of disease was not seen
- isolation of S. hyodysenteriae from mucosal scrapings ([4]; first trial, valnemulin 30 ppm): not isolated from mucosal scrapings
- pigs with post-mortem lesions ([4]; first trial, valnemulin 30 ppm): One pig
- pigs with clinical disease ([4]; first trial, valnemulin 30 ppm in feed): 1 pig
- inclusion rate down to which effective in preventing swine dysentery ([4]; in feed): 10 ppm
- animals affected ([4]; second trial, 5 ppm): 5 out of 10
- p of mean clinical score vs controls ([4]; second trial, 5 ppm): < 0.005
- p of numbers affected vs controls ([4]; second trial, 5 ppm): < 0.05
- p, heavier than controls at end of trial ([4]; second trial, 5 ppm): 0.05
- other animals with lesions and S. hyodysenteriae in mucosal scrapings ([4]; second trial, 5 ppm, no clinical signs): 2 animals
- pigs with post-mortem lesions ([4]; second trial, 5 ppm, of 5 pigs with previous signs, S. hyodysenteriae not isolated): 2
- pigs with S. hyodysenteriae isolated from rectal swabs ([4]; second trial, 5 ppm, of the 5 animals affected): 2
- mean clinical score ([4]; second trial, 5 ppm, control 77): 11
- first clinical signs after challenge ([4]; second trial, 5 ppm, control 5 days): 8 days
- p, heavier than controls at end of trial ([4]; second trial, 10 and 20 ppm): < 0.05
- clinical signs of disease ([4]; second trial, 10 or 20 ppm): not seen
- isolation of S. hyodysenteriae ([4]; second trial, 10 or 20 ppm): not isolated
- post-mortem lesions ([4]; second trial, 10 or 20 ppm): Lesions were not seen
- prevention of swine dysentery in words ([4]; valnemulin 5 ppm in feed): did not completely prevent clinical disease or the shedding of spirochaetes
- prevention compared with tiamulin ([4]; valnemulin 10 ppm in feed): clearly more effective than Tiamulin at 30 ppm
